Reference: ChEMBL document CHEMBL1144054, “Two new bromophenols from the red alga odonthalia corymbifera” (J Nat Prod, 1999)

Assay: Inhibition of yeast alpha-glucosidase by colorimetric method
Parameters: species or system Saccharomyces cerevisiae

Compound | IC50
Oc1cc(COCc2cc(O)c(O)c(Br)c2Br)c(Br)c(Br)c1O | 0.098 µM
OCc1cc(O)c(O)c(Br)c1Br [LANOSOL] | 89 µM
OCc1cc(Br)c(O)c(Oc2c(CO)cc(Br)c(O)c2O)c1Br | 25 µM
